# Results: patent US20090215884A1, “METHOD FOR WOUND HEALING” (priority 2005, published 2009)
# Tests used:
# [1] = system: keratinocytes; experiment: Cytokine production by PEP005-treated human keratinocytes; format: cell-based; details: 6 h, supernatant
# Protocol: Cytokine production by PEP005-treated human cells Confluent cultures of Me10538 cells, keratinocytes, fibroblasts and neutrophils were incubated for 6 h in the absence or presence of PEP005 (1-100 ng/ml). The supernatants were harvested and analyzed for the presence of the following cytokines; TNF-α, IL-6 and IL-8 using a multiplex detection kit (Biosource International, Nivelles, Belgium). Units of detected proteins are pg/ml.
# [2] = Storage stability of PEP005 preparations; format: physicochemical; details: stored at 4° C.
# Protocol: PEP005 was supplied by Peplin Limited, Brisbane, Australia, in 20 mg batches and stored at 4° C. When required, the PEP005 was solubilized in dimethyl sulphoxide (DMSO, >99.9%, Sigma Chemical Co., Dorset, U.K.), at a concentration of 10 mg/ml.
# PEP005 was supplied by Peplin Limited, Brisbane, Australia as 0.01% (100 μg/ml), 0.028% (280 μg/ml) and 0.05% (500 μg/ml) preparations in a DMSO/isopropanol-based gel. PEP005-free, DMSO/isopropanol-based carrier gel was also supplied to serve as a vehicle control.
# [3] = system: dermal fibroblasts; experiment: Fibroblast populated collagen lattice (FPCL) reorganization/contraction; format: cell-based, human; details: 0.1 μg/ml PEP005
# Source text: A normal adult skin biopsy (6 mm) was obtained (n=1), with informed consent, from an individual attending the Oral Surgery Clinic, School of Dentistry, Wales College of Medicine, Cardiff. Following the application of a local anaesthetic, the dermal biopsy was collected and adult dermal fibroblast cultures established by single cell suspension technique, following enzymic degradation of the specimen. This technique has previously been reliably used to establish viable primary cultures of both oral and dermal fibroblasts in vitro (Cook et al, 2000; Stephens et al, 2001; 2003). […]
# The ability of dermal fibroblasts to remodel/reorganize their ECM environment in the presence of PEP005 was examined by fibroblast populated collagen lattices (FPCLs), according to Cook et al (2000). […] The degree of ECM reorganization/lattice contraction was quantified from three separate lattice diameter measurements performed on each of the three replicate samples, at days 1, 2, 3, 4, 5, 6, 7, 10 and 14, after initial fabrication. […]
# Each experiment was performed on two separate occasions, with the % reductions in lattice contraction and the MMP densitometric values obtained being expressed as an average for each group of samples
smiles,measurement,setting,value
"C/C=C(/C)C(=O)O[C@H]1C(C)=C[C@]23C(=O)[C@@H](C=C(CO)[C@@H](O)[C@]12O)[C@H]1[C@@H](C[C@H]3C)C1(C)C [PEP005, ingenol-3-angelate]",IL-8,[1]; PEP005 1 ng/ml,3910 ± 148 pg/mL
same,TNFα,[1]; PEP005 1 ng/ml,510 ± 26 pg/mL
same,IL-8,[1]; PEP005 5 ng/ml,4775 ± 178 pg/mL
same,TNFα,[1]; PEP005 5 ng/ml,847 ± 37 pg/mL
same,IL-8,[1]; PEP005 10 ng/ml,3895 ± 198 pg/mL
same,TNFα,[1]; PEP005 10 ng/ml,498 ± 29 pg/mL
same,IL-8,[1]; PEP005 100 ng/ml,2950 ± 108 pg/mL
same,TNFα,[1]; PEP005 100 ng/ml,335 ± 21 pg/mL
same,stability of PEP005 gels,"[2]; 0.01%, 0.028% and 0.05% preparations in DMSO/isopropanol-based gel",stable for several months
same,stability of PEP005/DMSO stock solution,[2]; 10 mg/ml in DMSO,stable for several months
same,Type I collagen lattice contraction,[3],significantly increased
